From patent publication US7320878B2, “Protease assay for therapeutic drug monitoring” (Tibotec Pharmaceuticals, Ltd., priority 2001, dated 2008)

Tests used:
[1] = system: α-acid glycoprotein (AAG); assay: Binding constant (Ka) of the drug to alpha-acid glycoprotein; set-up: species or system human
[2] = system: normal human serum proteins; conditions: 5 min, 1 μM
Protocol: To one part of serum sample two parts of MeOH were added, mixed and centrifuged at 16,100 g for 30 min. The supernatant was recovered and can be stored for at least 2 weeks at −20° C. prior to assay. 60 μl is used for the cuvette assay or 24 μl is used for the plate reader assay. Six serial dilutions 1:2 to 1:120 of the extracts, obtained from analyte samples were prepared prior to assay. Methanol extract of normal dog serum without inhibitor was used for the dilution.
For the plate reader assay, the following conditions were used: The buffer was prepared of 50 mM Sodium acetate (NaOAc), pH 4.5, 2 mM dithiothreitol (DTT), 20 mM Sodium Chloride (NaCl), 0.01% Tween 20. The substrate was present at a final concentration of 20 μM in the above buffer. The substrate used is based on a natural substrate for HIV protease. It contains a portion (P4-P4′) of the p17-p24 gag protein. […] The enzyme, wild type HIV-1 protease, was present in the above buffer (50 mM NaOAc, pH4.5, 2 mM DTT, 200 mM NaCl), 0.01% Tween 20) at a final concentration of 4-5 nM. It should be appreciated that other forms of HIV protease can be used as well, including mutant forms of the protease.
The assay is performed at room temperature (RT). […] The reaction was started by adding 88 μl buffer containing substrate and the increase of fluorescence was monitored over time (FIG. 2). […]

plasma protein = conditions: cited from earlier work

Ka for AAG binding [1] | Free/total drug ratio (%), percentage of HIV protease inhibitor in sample not bound to proteins [2] [%] | Structure (SMILES) | plasma protein bound (plasma protein)
No binding |  | CC(C)(C)NC(=O)[C@@H]1CN(Cc2cccnc2)CCN1C[C@@H](O)C[C@@H](Cc1ccccc1)C(=O)N[C@H]1c2ccccc2C[C@H]1O [IDV, indinavir] | 
2.3 10^6 M^−1 | 10.5 | CC(C)CN(C[C@@H](O)[C@H](Cc1ccccc1)NC(=O)[C@H](CC(N)=O)NC(=O)c1ccc2ccccc2n1)C(=O)NC(C)(C)C [SC-52151] | 
 |  | CC(C)(C)NC(=O)[C@@H]1C[C@@H]2CCCC[C@@H]2CN1C[C@@H](O)[C@H](Cc1ccccc1)NC(=O)[C@H](CC(N)=O)NC(=O)c1ccc2ccccc2n1 [saquinavir] | 90-99%
